Data reported in patent US7118895B2, “Process for producing aglycon by using diglycosidase and flavor-improved food containing the aglycon and converting agent to be used in the process” (Amano Enzyme Inc., priority 2000, dated 2006).

Tested on: Crude diglycosidase
Assay: Examination of pH in the conversion into isoflavone aglycons by diglycosidase using soybean materials
Format: biochemical, Penicillium multicolor IAM7153
Design: Decomposition efficiency of genistin family in soymilk / Decomposition efficiency of genistin family in defatted soybean / Decomposition efficiency of daidzin family in defatted soybean: concentration or dose not given beside the values
Details: for Decomposition efficiency of genistin family in roasted soy flour: 55° C.
Outline: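 Conversion of glycosides to isoflavone aglycons was followed by HPLC after crude diglycosidase (1.88 AU/mL enzyme solution) acted at 55° C for up to 6 h on four soy materials, 50 mg each, held at pH 2–11.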

[1] = pH4.8, heat treatment of enzyme: no, reaction time 0 h
[2] = pH4.8, heat treatment of enzyme: no, reaction time 1 h
[3] = pH4.8, heat treatment of enzyme: no, reaction time 3 h
[4] = pH4.8, heat treatment of enzyme: no, reaction time 6 h
[5] = pH4.8, heat treatment of enzyme: yes, reaction time 6 h
[6] = pH6.6, heat treatment of enzyme: no, reaction time 0 h
[7] = pH6.6, heat treatment of enzyme: no, reaction time 1 h
[8] = pH6.6, heat treatment of enzyme: no, reaction time 3 h
[9] = pH6.6, heat treatment of enzyme: no, reaction time 6 h
[10] = pH6.6, heat treatment of enzyme: yes, reaction time 6 h

O=c1c(-c2ccc(O)cc2)coc2cc(O[C@@H]3O[C@H](CO)[C@@H](O)[C@H](O)[C@H]3O)cc(O)c12 [genistin]
Decomposition efficiency of genistin family in concentrated soybean protein (pH1.6, heat treatment of enzyme: no, reaction time 0 h): 49.7% | Decomposition efficiency of genistin family in concentrated soybean protein (pH1.6, heat treatment of enzyme: no, reaction time 1 h): 50.2% | Decomposition efficiency of genistin family in concentrated soybean protein (pH1.6, heat treatment of enzyme: no, reaction time 3 h): 51.6% | Decomposition efficiency of genistin family in concentrated soybean protein (pH1.6, heat treatment of enzyme: no, reaction time 6 h): 53.3% | Decomposition efficiency of genistin family in concentrated soybean protein (pH1.6, heat treatment of enzyme: yes, reaction time 6 h): 54.4% | Decomposition efficiency of genistin family in roasted soy flour (pH2, heat treatment of enzyme no, reaction time 0 h): 50.0 | Decomposition efficiency of genistin family in roasted soy flour (pH2, heat treatment of enzyme no, reaction time 1 h): 49.7 | Decomposition efficiency of genistin family in roasted soy flour (pH2, heat treatment of enzyme no, reaction time 3 h): 50.7 | Decomposition efficiency of genistin family in roasted soy flour (pH2, heat treatment of enzyme no, reaction time 6 h): 52.7 | Decomposition efficiency of genistin family in roasted soy flour (pH2, heat treatment of enzyme yes, reaction time 6 h): 52.8 | Decomposition efficiency of genistin family in soymilk (pH2.3, heat treatment of enzyme: no, reaction time 0 h): 31.5% | Decomposition efficiency of genistin family in soymilk (pH2.3, heat treatment of enzyme: no, reaction time 1 h): not detected | Decomposition efficiency of genistin family in soymilk (pH2.3, heat treatment of enzyme: no, reaction time 3 h): not detected | Decomposition efficiency of genistin family in soymilk (pH2.3, heat treatment of enzyme: no, reaction time 6 h): not detected | Decomposition efficiency of genistin family in soymilk (pH2.3, heat treatment of enzyme: yes, reaction time 6 h): 35.5% | Decomposition efficiency of genistin family in defatted soybean (pH2.6, heat treatment of enzyme: no, reaction time 0 h): 42.0% | Decomposition efficiency of genistin family in defatted soybean (pH2.6, heat treatment of enzyme: no, reaction time 1 h): 36.3% | Decomposition efficiency of genistin family in defatted soybean (pH2.6, heat treatment of enzyme: no, reaction time 3 h): 20.3% | Decomposition efficiency of genistin family in defatted soybean (pH2.6, heat treatment of enzyme: no, reaction time 6 h): 20.1% | Decomposition efficiency of genistin family in defatted soybean (pH2.6, heat treatment of enzyme: yes, reaction time 6 h): 44.3% | Decomposition efficiency of genistin family in concentrated soybean protein (pH2.7, heat treatment of enzyme: no, reaction time 0 h): 49.7% | Decomposition efficiency of genistin family in concentrated soybean protein (pH2.7, heat treatment of enzyme: no, reaction time 1 h): 23.1% | Decomposition efficiency of genistin family in concentrated soybean protein (pH2.7, heat treatment of enzyme: no, reaction time 3 h): 22.1% | Decomposition efficiency of genistin family in concentrated soybean protein (pH2.7, heat treatment of enzyme: no, reaction time 6 h): 17.5% | Decomposition efficiency of genistin family in concentrated soybean protein (pH2.7, heat treatment of enzyme: yes, reaction time 6 h): 50.5% | Decomposition efficiency of genistin family in roasted soy flour (pH3, heat treatment of enzyme no, reaction time 0 h): 50.0 | Decomposition efficiency of genistin family in roasted soy flour (pH3, heat treatment of enzyme no, reaction time 1 h): 3.4 | Decomposition efficiency of genistin family in roasted soy flour (pH3, heat treatment of enzyme no, reaction time 3 h): not detected | Decomposition efficiency of genistin family in roasted soy flour (pH3, heat treatment of enzyme no, reaction time 6 h): not detected | Decomposition efficiency of genistin family in roasted soy flour (pH3, heat treatment of enzyme yes, reaction time 6 h): 49.9 | Decomposition efficiency of genistin family in defatted soybean (pH3.4, heat treatment of enzyme: no, reaction time 0 h): 42.0% | Decomposition efficiency of genistin family in defatted soybean (pH3.4, heat treatment of enzyme: no, reaction time 1 h): not detected | Decomposition efficiency of genistin family in defatted soybean (pH3.4, heat treatment of enzyme: no, reaction time 3 h): not detected | Decomposition efficiency of genistin family in defatted soybean (pH3.4, heat treatment of enzyme: no, reaction time 6 h): not detected | Decomposition efficiency of genistin family in defatted soybean (pH3.4, heat treatment of enzyme: yes, reaction time 6 h): 44.3% | Decomposition efficiency of genistin family in soymilk (pH3.5, heat treatment of enzyme: no, reaction time 0 h): 31.5% | Decomposition efficiency of genistin family in soymilk (pH3.5, heat treatment of enzyme: no, reaction time 1 h): not detected | Decomposition efficiency of genistin family in soymilk (pH3.5, heat treatment of enzyme: no, reaction time 3 h): not detected | Decomposition efficiency of genistin family in soymilk (pH3.5, heat treatment of enzyme: no, reaction time 6 h): not detected | Decomposition efficiency of genistin family in soymilk (pH3.5, heat treatment of enzyme: yes, reaction time 6 h): 37.0% | Decomposition efficiency of genistin family in concentrated soybean protein (pH3.7, heat treatment of enzyme: no, reaction time 0 h): 50.7% | Decomposition efficiency of genistin family in concentrated soybean protein (pH3.7, heat treatment of enzyme: no, reaction time 1 h): not detected | Decomposition efficiency of genistin family in concentrated soybean protein (pH3.7, heat treatment of enzyme: no, reaction time 3 h): not detected | Decomposition efficiency of genistin family in concentrated soybean protein (pH3.7, heat treatment of enzyme: no, reaction time 6 h): not detected | Decomposition efficiency of genistin family in concentrated soybean protein (pH3.7, heat treatment of enzyme: yes, reaction time 6 h): 50.6% | Decomposition efficiency of genistin family in roasted soy flour (pH4, heat treatment of enzyme no, reaction time 0 h): 49.9 | Decomposition efficiency of genistin family in roasted soy flour (pH4, heat treatment of enzyme no, reaction time 1 h): not detected | Decomposition efficiency of genistin family in roasted soy flour (pH4, heat treatment of enzyme no, reaction time 3 h): not detected | Decomposition efficiency of genistin family in roasted soy flour (pH4, heat treatment of enzyme no, reaction time 6 h): not detected | Decomposition efficiency of genistin family in roasted soy flour (pH4, heat treatment of enzyme yes, reaction time 6 h): 50.2 | Decomposition efficiency of genistin family in defatted soybean [1]: 40.5% | Decomposition efficiency of genistin family in soymilk [1]: 31.7% | Decomposition efficiency of genistin family in defatted soybean [2]: not detected | Decomposition efficiency of genistin family in soymilk [2]: not detected | Decomposition efficiency of genistin family in defatted soybean [3]: not detected | Decomposition efficiency of genistin family in soymilk [3]: not detected | Decomposition efficiency of genistin family in defatted soybean [4]: not detected | Decomposition efficiency of genistin family in soymilk [4]: not detected | Decomposition efficiency of genistin family in defatted soybean [5]: 31.8% | Decomposition efficiency of genistin family in soymilk [5]: 37.8% | Decomposition efficiency of genistin family in roasted soy flour (pH5, heat treatment of enzyme no, reaction time 0 h): 49.9 | Decomposition efficiency of genistin family in roasted soy flour (pH5, heat treatment of enzyme no, reaction time 1 h): not detected | Decomposition efficiency of genistin family in roasted soy flour (pH5, heat treatment of enzyme no, reaction time 3 h): not detected | Decomposition efficiency of genistin family in roasted soy flour (pH5, heat treatment of enzyme no, reaction time 6 h): not detected | Decomposition efficiency of genistin family in roasted soy flour (pH5, heat treatment of enzyme yes, reaction time 6 h): 52.6 | Decomposition efficiency of genistin family in concentrated soybean protein (pH5.1, heat treatment of enzyme: no, reaction time 0 h): 50.7% | Decomposition efficiency of genistin family in concentrated soybean protein (pH5.1, heat treatment of enzyme: no, reaction time 1 h): not detected | Decomposition efficiency of genistin family in concentrated soybean protein (pH5.1, heat treatment of enzyme: no, reaction time 3 h): not detected | Decomposition efficiency of genistin family in concentrated soybean protein (pH5.1, heat treatment of enzyme: no, reaction time 6 h): not detected | Decomposition efficiency of genistin family in concentrated soybean protein (pH5.1, heat treatment of enzyme: yes, reaction time 6 h): 51.4% | Decomposition efficiency of genistin family in defatted soybean (pH5.4, heat treatment of enzyme: no, reaction time 0 h): 40.5% | Decomposition efficiency of genistin family in defatted soybean (pH5.4, heat treatment of enzyme: no, reaction time 1 h): not detected | Decomposition efficiency of genistin family in defatted soybean (pH5.4, heat treatment of enzyme: no, reaction time 3 h): not detected | Decomposition efficiency of genistin family in defatted soybean (pH5.4, heat treatment of enzyme: no, reaction time 6 h): not detected | Decomposition efficiency of genistin family in defatted soybean (pH5.4, heat treatment of enzyme: yes, reaction time 6 h): 6.2% | Decomposition efficiency of genistin family in soymilk (pH6.2, heat treatment of enzyme: no, reaction time 0 h): 31.7% | Decomposition efficiency of genistin family in soymilk (pH6.2, heat treatment of enzyme: no, reaction time 1 h): not detected | Decomposition efficiency of genistin family in soymilk (pH6.2, heat treatment of enzyme: no, reaction time 3 h): not detected | Decomposition efficiency of genistin family in soymilk (pH6.2, heat treatment of enzyme: no, reaction time 6 h): not detected | Decomposition efficiency of genistin family in soymilk (pH6.2, heat treatment of enzyme: yes, reaction time 6 h): 38.3% | Decomposition efficiency of genistin family in roasted soy flour (pH6.5, heat treatment of enzyme no, reaction time 0 h): 49.4 | Decomposition efficiency of genistin family in roasted soy flour (pH6.5, heat treatment of enzyme no, reaction time 1 h): not detected | Decomposition efficiency of genistin family in roasted soy flour (pH6.5, heat treatment of enzyme no, reaction time 3 h): not detected | Decomposition efficiency of genistin family in roasted soy flour (pH6.5, heat treatment of enzyme no, reaction time 6 h): not detected | Decomposition efficiency of genistin family in roasted soy flour (pH6.5, heat treatment of enzyme yes, reaction time 6 h): 54.8 | Decomposition efficiency of genistin family in concentrated soybean protein [6]: 50.4% | Decomposition efficiency of genistin family in defatted soybean [6]: 39.2% | Decomposition efficiency of genistin family in concentrated soybean protein [7]: 13.9% | Decomposition efficiency of genistin family in defatted soybean [7]: not detected | Decomposition efficiency of genistin family in concentrated soybean protein [8]: 3.8% | Decomposition efficiency of genistin family in defatted soybean [8]: not detected | Decomposition efficiency of genistin family in concentrated soybean protein [9]: 1.7% | Decomposition efficiency of genistin family in defatted soybean [9]: not detected | Decomposition efficiency of genistin family in concentrated soybean protein [10]: 53.2% | Decomposition efficiency of genistin family in defatted soybean [10]: 7.7% | Decomposition efficiency of genistin family in soymilk (pH7.2, heat treatment of enzyme: no, reaction time 0 h): 31.2% | Decomposition efficiency of genistin family in soymilk (pH7.2, heat treatment of enzyme: no, reaction time 1 h): not detected | Decomposition efficiency of genistin family in soymilk (pH7.2, heat treatment of enzyme: no, reaction time 3 h): not detected | Decomposition efficiency of genistin family in soymilk (pH7.2, heat treatment of enzyme: no, reaction time 6 h): not detected | Decomposition efficiency of genistin family in soymilk (pH7.2, heat treatment of enzyme: yes, reaction time 6 h): 38.9% | Decomposition efficiency of genistin family in defatted soybean (pH7.8, heat treatment of enzyme: no, reaction time 0 h): 40.4% | Decomposition efficiency of genistin family in defatted soybean (pH7.8, heat treatment of enzyme: no, reaction time 1 h): 15.7% | Decomposition efficiency of genistin family in defatted soybean (pH7.8, heat treatment of enzyme: no, reaction time 3 h): 12.3% | Decomposition efficiency of genistin family in defatted soybean (pH7.8, heat treatment of enzyme: no, reaction time 6 h): 11.4% | Decomposition efficiency of genistin family in defatted soybean (pH7.8, heat treatment of enzyme: yes, reaction time 6 h): 37.5% | Decomposition efficiency of genistin family in roasted soy flour (pH8.5, heat treatment of enzyme no, reaction time 0 h): 55.8 | Decomposition efficiency of genistin family in roasted soy flour (pH8.5, heat treatment of enzyme no, reaction time 1 h): 28.7 | Decomposition efficiency of genistin family in roasted soy flour (pH8.5, heat treatment of enzyme no, reaction time 3 h): 19.2 | Decomposition efficiency of genistin family in roasted soy flour (pH8.5, heat treatment of enzyme no, reaction time 6 h): 14.5 | Decomposition efficiency of genistin family in roasted soy flour (pH8.5, heat treatment of enzyme yes, reaction time 6 h): 59.5 | Decomposition efficiency of genistin family in concentrated soybean protein (pH8.6, heat treatment of enzyme: no, reaction time 0 h): 53.8% | Decomposition efficiency of genistin family in concentrated soybean protein (pH8.6, heat treatment of enzyme: no, reaction time 1 h): 50.4% | Decomposition efficiency of genistin family in concentrated soybean protein (pH8.6, heat treatment of enzyme: no, reaction time 3 h): 45.1% | Decomposition efficiency of genistin family in concentrated soybean protein (pH8.6, heat treatment of enzyme: no, reaction time 6 h): 36.3% | Decomposition efficiency of genistin family in concentrated soybean protein (pH8.6, heat treatment of enzyme: yes, reaction time 6 h): 56.2% | Decomposition efficiency of genistin family in soymilk (pH11.6, heat treatment of enzyme: no, reaction time 0 h): 34.8% | Decomposition efficiency of genistin family in soymilk (pH11.6, heat treatment of enzyme: no, reaction time 1 h): not detected | Decomposition efficiency of genistin family in soymilk (pH11.6, heat treatment of enzyme: no, reaction time 3 h): not detected | Decomposition efficiency of genistin family in soymilk (pH11.6, heat treatment of enzyme: no, reaction time 6 h): not detected | Decomposition efficiency of genistin family in soymilk (pH11.6, heat treatment of enzyme: yes, reaction time 6 h): 41.3%
